Measured values taken from the OPERA property sets (Mansouri et al. 2018).

Row | Compound | boiling point | log10 vapour pressure (mmHg) | melting point | ready biodegradability | log10 Henry constant (atm·m³/mol) | log10 Koa | log10 Koc (L/kg)
1 | OCCCCCCO | 250 °C | -3.3 | 45 °C |  |  |  | 
2 | CCc1cc2c(cc1C(C)=O)C(C)(C)CCC2(C)C |  |  | 46.5 °C |  |  |  | 
3 | CC1=C(C)CCCC1 | 138 °C |  | -84.1 °C |  |  |  | 
4 | N#CCc1ccccc1 | 234 °C | -1.05 | -23.8 °C | readily biodegradable |  |  | 
5 | CCCCC(CC)CO (centres undefined) |  | -0.867 | -70 °C | readily biodegradable |  |  | 
6 | CCc1ccncc1 | 168 °C | 0.355 | -90.5 °C |  | -5.07 |  | 
7 | CCc1ccc2cc3ccccc3cc2c1 |  | -5.28 | 152 °C |  |  |  | 
8 | O=C(Cl)c1cccc([N+](=O)[O-])c1 | 276 °C |  | 36 °C |  |  |  | 
9 | CCN(CC)CCOC(=O)C1(C2CCCCC2)CCCCC1.Cl |  |  | 165 °C |  |  |  | 
10 | CCOc1ccc(NC(=O)OC(C)C)cc1OCC |  | -4.2 | 100 °C |  |  |  | 
11 | O=C(O)C1CCCN1 (racemic) |  |  | 205 °C |  |  |  | 
12 | Cc1cccc(N(C)C(=S)Oc2ccc3c(c2)C2CCC3C2)c1 (centres undefined) |  |  | 93 °C |  |  |  | 
13 | CNCCCN |  |  |  | readily biodegradable |  |  | 
14 | O=C(Br)c1ccccc1 | 218 °C | -0.654 | -24 °C |  |  |  | 
15 | Ic1cc(I)c(I)c(I)c1I |  |  | 172 °C |  |  |  | 
16 | CCOC(=O)c1cccc(O)c1 |  |  | 74 °C | readily biodegradable |  |  | 
17 | CC1CC(OC(=O)C(O)c2ccccc2)CC(C)(C)C1 (centres undefined) |  |  | 56 °C |  |  |  | 
18 | Cc1cc(O)c2c(c1)C(=O)c1cc(O)cc(O)c1C2=O |  |  | 257 °C |  |  |  | 
19 | Cc1cc(=O)n(-c2ccccc2)[nH]1 |  |  | 128 °C |  |  |  | 
20 | CC(C)ON=O | 40 °C |  |  |  |  |  | 
21 | CC(C)(N)CO | 166 °C | 0 | 25.5 °C |  |  |  | 

Row | Compound | boiling point | log10 vapour pressure (mmHg) | melting point | ready biodegradability | log10 Henry constant (atm·m³/mol) | log10 Koa | log10 Koc (L/kg)
22 | CCCCCCCCOC(=O)c1cc(O)c(O)c(O)c1 |  |  | 102 °C |  |  |  | 
23 | CC(C)(C1CCCCC1)C1CCCCC1 | 286 °C |  | 15.6 °C |  |  |  | 
24 | O=C([O-])C(F)(F)C(F)F.[Na+] |  | -3.52 |  |  |  |  | 
25 | NC(=O)c1ccccc1O |  |  | 142 °C |  |  |  | 
26 | CC(Cl)C(Cl)Cl (centres undefined) | 132 °C | 0.491 |  |  |  |  | 
27 | C1COCCO1 | 102 °C | 1.58 | 11.8 °C | not readily biodegradable | -5.32 | 3.18 | 1.23
28 | COc1cc(OC)nc(Sc2cccc(Cl)c2C(=O)[O-])n1.[Na+] |  |  | 248 °C |  |  |  | 
29 | CC(=O)Nc1ccc(S(=O)(=O)Nc2ccc([N+](=O)[O-])cc2)cc1 |  |  | 240 °C |  |  |  | 
30 | c1ccc2c(c1)Cc1ccccc1O2 | 311 °C |  | 100 °C |  |  |  | 
31 | O=C(Cl)c1ccc(Br)cc1 | 246 °C |  | 42 °C |  |  |  | 
32 | Oc1ccccc1 | 182 °C | -0.456 | 40.9 °C | readily biodegradable | -6.48 |  | 1.43
33 | CCCCCCCCC(=O)OCCCCC |  |  | -27 °C |  |  |  | 
34 | CCOP(=S)(OCC)Oc1ccc(=O)n(-c2ccccc2)n1 |  | -7.96 | 55 °C |  |  |  | 
35 | C=CP(=O)(O)O |  |  | 43 °C |  |  |  | 
36 | CC(O)CNCC(C)O (centres undefined) | 250 °C | -3.9 | 44.5 °C | readily biodegradable |  |  | 
37 | c1ccsc1 | 84 °C | 1.9 | -39.4 °C | not readily biodegradable | -2.64 |  | 
38 | OCCCl | 129 °C | 0.856 | -67.5 °C | readily biodegradable |  | 4.3 | 
39 | Cc1cc(C)c2cc(C)ccc2c1 |  |  | 12 °C |  |  |  | 
40 | N#CC#CC#N |  |  | 20.5 °C |  |  |  | 
41 | COc1cc2nc(N3CCN(C(=O)C4CCCO4)CC3)nc(N)c2cc1OC (centres undefined) |  |  | 273 °C |  |  |  | 
42 | CCCCc1ccc(O)cc1 | 248 °C | -2.65 | 22 °C |  |  |  | 

Row | Compound | boiling point | log10 vapour pressure (mmHg) | melting point | ready biodegradability | log10 Henry constant (atm·m³/mol) | log10 Koa | log10 Koc (L/kg)
43 | CNC(=C[N+](=O)[O-])NCCSCc1ccc(CN(C)C)o1 |  |  | 69.5 °C |  |  |  | 
44 | C/C=C/C=C/C(=O)O |  |  |  | readily biodegradable |  |  | 
45 | CC(C)(C)c1cccc(C(C)(C)C)n1 |  |  | 2.2 °C |  |  |  | 
46 | C1COCOC1 | 106 °C |  | -45 °C |  |  |  | 
47 | CCCc1ccc(OC)cc1 | 212 °C |  |  |  |  |  | 
48 | Cc1cccnc1N | 222 °C |  | 33.5 °C |  |  |  | 
49 | CCCCCCCCCCCCCC(CCCCCCCCCCCC)CCCCCCCCCCCC |  |  | 13.7 °C |  |  |  | 
50 | C#CC(C)(O)C(C)C (centres undefined) | 134 °C |  |  |  |  |  | 
51 | C=C(C)C(C)CC (centres undefined) | 84.3 °C | 1.91 | -134 °C |  |  |  | 
52 | CC(O)(P(=O)(O)O)P(=O)(O)O |  |  |  | readily biodegradable |  |  | 
53 | C[C@@H]1Cc2c(Cl)cc(C(=O)N[C@@H](Cc3ccccc3)C(=O)O)c(O)c2C(=O)O1 |  |  | 169 °C |  |  |  | 
54 | CCOC(=O)C(Br)CBr (centres undefined) | 214 °C |  |  |  |  |  | 
55 | Cc1cc(=O)n(-c2ccccc2)n1C | 319 °C |  | 114 °C |  |  |  | 
56 | O=C(O)c1cc(Cl)cc(Cl)c1O |  |  | 220 °C |  |  |  | 
57 | CCOC(=O)C1N=C(c2ccccc2F)c2cc(Cl)ccc2NC1=O (centres undefined) |  |  | 194 °C |  |  |  | 
58 | COc1cc(C#N)ccc1O |  |  | 86 °C |  |  |  | 
59 | C[Si](C)(C)CCCO | 141 °C |  |  |  |  |  | 
60 | Cc1ccc2c(c1)CC(C)CC2 (centres undefined) | 237 °C |  |  |  |  |  | 
61 | Clc1cc(Cl)c2cccc(Cl)c2c1Cl |  |  |  |  |  | 8.41 | 
